Results from PMC5896373 (Molecular Pharmacology, 2018).
Numbering of substitutions follows the chain as printed. pIC50: −log10 of the molar value.

Assays:
Experiment in all cases: Two-electrode voltage clamp of ATP-evoked currents in Xenopus oocytes
Format in all cases: cell-based
[1] = target: T1, P2X7R point mutant Y295A (Homo sapiens, UniProt Q99572, I21V/M24R/N16P/N25R/Q22R/R20V/S23N/T19I/Y26L/Y295A); settings: EC90 ATP, mean ± S.E.M.
T1 construct: expressed in transfected cells; host or cells: Xenopus laevis oocytes (cRNA injection)
T1 sequence (Q99572 whole entry N16P/T19I/R20V/I21V/Q22R/S23N/M24R/N25R/Y26L/Y295A): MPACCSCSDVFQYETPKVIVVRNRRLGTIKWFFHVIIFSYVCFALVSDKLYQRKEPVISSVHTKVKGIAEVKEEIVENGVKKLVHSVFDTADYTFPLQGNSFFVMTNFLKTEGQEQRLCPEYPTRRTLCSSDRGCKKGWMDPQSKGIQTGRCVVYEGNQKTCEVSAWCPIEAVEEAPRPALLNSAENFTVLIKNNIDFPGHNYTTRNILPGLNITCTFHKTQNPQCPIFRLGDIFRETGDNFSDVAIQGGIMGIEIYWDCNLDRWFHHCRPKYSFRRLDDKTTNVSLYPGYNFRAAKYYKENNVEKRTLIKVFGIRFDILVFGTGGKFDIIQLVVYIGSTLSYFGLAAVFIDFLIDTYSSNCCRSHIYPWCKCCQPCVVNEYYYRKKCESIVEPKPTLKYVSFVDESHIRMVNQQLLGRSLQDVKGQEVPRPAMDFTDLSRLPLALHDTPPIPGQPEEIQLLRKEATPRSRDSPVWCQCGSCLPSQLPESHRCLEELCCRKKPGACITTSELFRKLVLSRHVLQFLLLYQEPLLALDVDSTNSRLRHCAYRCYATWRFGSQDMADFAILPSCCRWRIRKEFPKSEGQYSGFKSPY
Procedure: (§1) Additional point mutants were made using the QuikChange mutagenesis kit (Stratagene California, La Jolla, CA). The production of the correct mutations and absence of coding errors was determined by DNA sequencing (Automated ABI Sequencing Service, University of Leicester, UK). cRNA was generated for the mutants and 50 nl (50 ng) was injected into manually defoliculated stage V Xenopus laevis oocytes using an Inject+Matic microinjector (J.A. Gabay, Inject+Matic, Geneva, Switzerland). Injected oocytes were stored at 16°C in ND96 buffer [in millimolar concentrations, NaCl 96, KCl 2, CaCl2 1.8, MgCl2 1, sodium pyruvate 5, and HEPES 5 (pH 7.6) supplemented with 50 μg/ml gentamycin and 50 μg/ml tetracycline]. Three to seven days postinjection two-electrode voltage clamp recordings were made from oocytes bathed in divalent-free ND96 buffer (in millimolar concentrations, NaCl 96, KCl 2, sodium pyruvate 5, HEPES 5, and 0.1 flufenamic acid, pH 7.6). Oocytes were voltage clamped at a holding potential of −60 mV with a GeneClamp500B amplifier (Molecular Devices).
Inhibition by the antagonists was expressed as the percentage of the peak current amplitude of an EC90 concentration of ATP recorded before the application of antagonist (ATP gave reproducible responses to ATP in the absence of antagonist). […]

[2] = target: T2, chimeric P2X7/1 receptor 164–168 (Homo sapiens, UniProt Q99572, A166G/I21V/M24R/N16P/N25R/Q22R/R20V/S165F/S23N/T19I/V164I/Y26L); settings: chimera 164–168; for pIC50: inhibition of EC90 ATP response
T2 construct: expressed in transfected cells; host or cells: Xenopus laevis oocytes (cRNA injection)
T2 sequence (Q99572 1-595 N16P/T19I/R20V/I21V/Q22R/S23N/M24R/N25R/Y26L/V164I/S165F/A166G): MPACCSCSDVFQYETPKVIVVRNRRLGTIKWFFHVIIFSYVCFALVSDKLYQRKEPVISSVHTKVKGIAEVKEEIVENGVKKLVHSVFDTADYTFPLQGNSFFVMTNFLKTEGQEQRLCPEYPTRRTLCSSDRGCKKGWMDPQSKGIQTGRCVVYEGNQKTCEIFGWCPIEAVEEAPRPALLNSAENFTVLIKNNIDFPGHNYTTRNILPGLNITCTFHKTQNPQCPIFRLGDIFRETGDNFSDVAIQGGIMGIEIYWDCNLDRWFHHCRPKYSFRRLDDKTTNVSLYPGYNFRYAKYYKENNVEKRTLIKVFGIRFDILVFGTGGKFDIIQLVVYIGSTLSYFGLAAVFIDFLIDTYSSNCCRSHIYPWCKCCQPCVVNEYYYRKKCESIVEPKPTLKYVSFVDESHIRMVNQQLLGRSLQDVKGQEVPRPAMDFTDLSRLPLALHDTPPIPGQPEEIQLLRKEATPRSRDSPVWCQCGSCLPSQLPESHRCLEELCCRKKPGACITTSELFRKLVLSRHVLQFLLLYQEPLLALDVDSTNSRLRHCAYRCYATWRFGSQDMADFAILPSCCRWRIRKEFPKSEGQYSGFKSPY
Procedure: as §1
Inhibition by the antagonists was expressed as the percentage of the peak current amplitude of an EC90 concentration of ATP recorded before the application of antagonist (ATP gave reproducible responses to ATP in the absence of antagonist). Inhibition curves were fitted with the Hill equation (variable slope) using GraphPad Prism 6 (GraphPad Software, San Diego, CA). […] Individual concentration-response curves were generated for individual experiments, and statistical analysis was carried out on the data generated. When shown in figures, the inhibition curves are fitted to the mean normalized data. […] Data are shown as mean ± S.E.M. In all cases n ≥ 3 for all data points.

[3] = target: T3, chimeric P2X7/1 receptor 122–128 (Homo sapiens, UniProt Q99572, DEL124-124/I21V/L128I/M24R/N16P/N25R/Q22R/R125E/R126G/R20V/S23N/T127G/T19I/Y122H/Y26L)
T3 construct: expressed in transfected cells; host or cells: Xenopus laevis oocytes (cRNA injection)
T3 sequence (Q99572 with tags, fused parts or gaps N16P/T19I/R20V/I21V/Q22R/S23N/M24R/N25R/Y26L/Y122H/DEL124-124/R125E/R126G/T127G/L128I): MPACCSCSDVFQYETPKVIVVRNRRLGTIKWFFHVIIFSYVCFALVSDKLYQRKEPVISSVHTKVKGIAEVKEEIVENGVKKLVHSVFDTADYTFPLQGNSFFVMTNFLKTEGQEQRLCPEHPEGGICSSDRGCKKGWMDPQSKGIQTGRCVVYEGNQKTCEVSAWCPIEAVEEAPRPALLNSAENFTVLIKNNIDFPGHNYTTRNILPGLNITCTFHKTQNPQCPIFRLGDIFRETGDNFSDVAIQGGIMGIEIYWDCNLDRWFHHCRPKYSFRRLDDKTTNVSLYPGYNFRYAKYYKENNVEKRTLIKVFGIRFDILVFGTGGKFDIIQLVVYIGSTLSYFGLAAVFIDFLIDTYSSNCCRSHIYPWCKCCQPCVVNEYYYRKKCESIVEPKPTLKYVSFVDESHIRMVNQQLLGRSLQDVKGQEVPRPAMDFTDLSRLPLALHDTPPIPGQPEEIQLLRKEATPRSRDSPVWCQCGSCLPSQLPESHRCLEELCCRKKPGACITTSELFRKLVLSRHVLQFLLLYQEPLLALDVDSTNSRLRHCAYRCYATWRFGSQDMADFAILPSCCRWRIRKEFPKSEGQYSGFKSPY
Procedure: as §1
(§2) Inhibition by the antagonists was expressed as the percentage of the peak current amplitude of an EC90 concentration of ATP recorded before the application of antagonist (ATP gave reproducible responses to ATP in the absence of antagonist). Inhibition curves were fitted with the Hill equation (variable slope) using GraphPad Prism 6 (GraphPad Software, San Diego, CA). […] Individual concentration-response curves were generated for individual experiments, and statistical analysis was carried out on the data generated. […] Data are shown as mean ± S.E.M. In all cases n ≥ 3 for all data points.

[4] = target: T4, P2X7R point mutant K110Y (Homo sapiens, UniProt Q99572, I21V/K110Y/M24R/N16P/N25R/Q22R/R20V/S23N/T19I/Y26L)
T4 construct: expressed in transfected cells; host or cells: Xenopus laevis oocytes (cRNA injection)
T4 sequence (Q99572 1-595 N16P/T19I/R20V/I21V/Q22R/S23N/M24R/N25R/Y26L/K110Y): T2 sequence (Q99572 1-595 N16P/T19I/R20V/I21V/Q22R/S23N/M24R/N25R/Y26L/V164I/S165F/A166G) with K110Y, I164V, F165S, G166A
Procedure: as §1, §2

[5] = target: T5, chimeric P2X7/1 receptor 170–177 (Homo sapiens, UniProt Q99572, A172V/A176I/E174D/E175D/I170V/I21V/M24R/N16P/N25R/Q22R/R20V/S23N/T19I/V173D/Y26L)
T5 construct: expressed in transfected cells; host or cells: Xenopus laevis oocytes (cRNA injection)
T5 sequence (Q99572 1-595 N16P/T19I/R20V/I21V/Q22R/S23N/M24R/N25R/Y26L/I170V/A172V/V173D/E174D/E175D/A176I): T2 sequence (Q99572 1-595 N16P/T19I/R20V/I21V/Q22R/S23N/M24R/N25R/Y26L/V164I/S165F/A166G) with I164V, F165S, G166A, I170V, A172V, V173D, E174D, E175D, A176I
Procedure: as §1, §2

Row | SMILES | pIC50 [1] | fold decrease in antagonist sensitivity relative to P2X7-2Nβ [2] | pIC50 [2] | pIC50 [3] | effect on antagonist potency relative to P2X7-2Nβ ([3]; chimera 122–128) | pIC50 [4] | effect on antagonist sensitivity relative to P2X7-2Nβ ([4]; K110Y) | pIC50 [5] | effect on antagonist potency relative to P2X7-2Nβ ([5]; chimera 170–177)
1 | COc1ccc(CC(=O)NC(N=C(NC#N)Nc2cccc3ncccc23)C(C)(C)C)cc1OC (centres unmarked) [A740003, N-[1-[[(cyanoamino)(5-quinolinylamino)methylene]amino]-2,2-dimethylpropyl]-3,4-dimethoxybenzeneacetamide] | 6.80 | ~5 fold | 6.40 | 7.00 | no effect | 7.00 | no effect | 7.20 | no effect
2 | Cl.Clc1cccc(-c2nnnn2Cc2cccnc2)c1Cl.O [A438079, 3-(5-(2,3-dichlorophenyl)-1H-tetrazol-1-yl)methyl pyridine hydrochloride hydrate] | 5.70 | – | 5.00 | 6.10 | – | 6.10 | – | 6.20 | –
